One test has as its target T1, Nav 1.7 (Homo sapiens, UniProt Q15858).
T1 construct: expressed in transfected cells
Put plainly: Whole-cell voltage clamp electrophysiology, automated patch clamp (marker c in Table of Examples). Format: cell-based. The settings on record: marker c = Automated patch clamp data; read-out: Nav 1.7 activity. The source says: a.IonWork Quattro data, b=Manual patch clamp data, c=Automated patch clamp data M=Method
Whole-Cell Voltage Clamp Electrophysiology Assay
Patch-clamp electrophysiology is considered the gold standard technique for investigation of ion channel function and pharmacology. Using this method, sodium channel currents can be measured in cells, which stably (or transiently) express the sodium channel subtype of interest. Application of compounds during such experiments provides a functional measure of the activity and potency of compounds affecting the ion channel of interest.
Electrophysiological studies can be performed using automated or manual patch-clamp techniques. Automated patch-clamp instruments suitable for this work include the Ion Works HT (MDS), Ion Works Quattro (MDS), PatchLiner (Nanion technologies), Port-A-Patch (Nanion technologies), QPatch (Sophion) or any other suitable platform.
For recording in automated patch-clamp instruments, cells expressing the voltage-gated sodium channel subtype of interest are dispensed in appropriate chips (plates with more than one recording chambers each containing one or more apertures to generate whole-cell patches), as provided by the manufacturer. Typically, the whole-cell perforated patch configuration is used for probing the pharmacology of compounds in automated patch-clamp electrophysiology on sodium channels. Extracellular and intracellular buffers for such experiments are composed according to the literature, or according to the instructions provided by the manufacturer of the instruments. Test solutions, which contain the compounds to be tested, are applied to the cells expressing the sodium channel of interest by a pipetting system, typically integrated into the robots.
A suitable voltage stimulus protocol is used to activate voltage-gated sodium channel proteins of interest. A typical stimulus protocol may consist of sweeps of sequential voltage pulses starting from a holding potential (i.e. −65 mV), to a more positive and depolarising test pulse potential (i.e. −10 mV) and finally to a more negative and hyperpolarising potential (i.e. −100 mV). According to the biophysics of the voltage-gated ion channel of interest and interest in channel configuration the voltages and durations of the pulses as well as the overall frequency of sweeps applied might vary. Accordingly, a stimulus protocol was designed to assess compounds due to their potential to block NaV1.7 channels primarily in inactivated state. Selectivity over other voltage-gated sodium channel members was assessed by protocols that reflect the native function of the channels (i.e. heart rate or firing of neurons).
(In general: The patch-clamp technique gives a direct electrical read-out from membranes.)
T1 sequence (Q15858 whole entry): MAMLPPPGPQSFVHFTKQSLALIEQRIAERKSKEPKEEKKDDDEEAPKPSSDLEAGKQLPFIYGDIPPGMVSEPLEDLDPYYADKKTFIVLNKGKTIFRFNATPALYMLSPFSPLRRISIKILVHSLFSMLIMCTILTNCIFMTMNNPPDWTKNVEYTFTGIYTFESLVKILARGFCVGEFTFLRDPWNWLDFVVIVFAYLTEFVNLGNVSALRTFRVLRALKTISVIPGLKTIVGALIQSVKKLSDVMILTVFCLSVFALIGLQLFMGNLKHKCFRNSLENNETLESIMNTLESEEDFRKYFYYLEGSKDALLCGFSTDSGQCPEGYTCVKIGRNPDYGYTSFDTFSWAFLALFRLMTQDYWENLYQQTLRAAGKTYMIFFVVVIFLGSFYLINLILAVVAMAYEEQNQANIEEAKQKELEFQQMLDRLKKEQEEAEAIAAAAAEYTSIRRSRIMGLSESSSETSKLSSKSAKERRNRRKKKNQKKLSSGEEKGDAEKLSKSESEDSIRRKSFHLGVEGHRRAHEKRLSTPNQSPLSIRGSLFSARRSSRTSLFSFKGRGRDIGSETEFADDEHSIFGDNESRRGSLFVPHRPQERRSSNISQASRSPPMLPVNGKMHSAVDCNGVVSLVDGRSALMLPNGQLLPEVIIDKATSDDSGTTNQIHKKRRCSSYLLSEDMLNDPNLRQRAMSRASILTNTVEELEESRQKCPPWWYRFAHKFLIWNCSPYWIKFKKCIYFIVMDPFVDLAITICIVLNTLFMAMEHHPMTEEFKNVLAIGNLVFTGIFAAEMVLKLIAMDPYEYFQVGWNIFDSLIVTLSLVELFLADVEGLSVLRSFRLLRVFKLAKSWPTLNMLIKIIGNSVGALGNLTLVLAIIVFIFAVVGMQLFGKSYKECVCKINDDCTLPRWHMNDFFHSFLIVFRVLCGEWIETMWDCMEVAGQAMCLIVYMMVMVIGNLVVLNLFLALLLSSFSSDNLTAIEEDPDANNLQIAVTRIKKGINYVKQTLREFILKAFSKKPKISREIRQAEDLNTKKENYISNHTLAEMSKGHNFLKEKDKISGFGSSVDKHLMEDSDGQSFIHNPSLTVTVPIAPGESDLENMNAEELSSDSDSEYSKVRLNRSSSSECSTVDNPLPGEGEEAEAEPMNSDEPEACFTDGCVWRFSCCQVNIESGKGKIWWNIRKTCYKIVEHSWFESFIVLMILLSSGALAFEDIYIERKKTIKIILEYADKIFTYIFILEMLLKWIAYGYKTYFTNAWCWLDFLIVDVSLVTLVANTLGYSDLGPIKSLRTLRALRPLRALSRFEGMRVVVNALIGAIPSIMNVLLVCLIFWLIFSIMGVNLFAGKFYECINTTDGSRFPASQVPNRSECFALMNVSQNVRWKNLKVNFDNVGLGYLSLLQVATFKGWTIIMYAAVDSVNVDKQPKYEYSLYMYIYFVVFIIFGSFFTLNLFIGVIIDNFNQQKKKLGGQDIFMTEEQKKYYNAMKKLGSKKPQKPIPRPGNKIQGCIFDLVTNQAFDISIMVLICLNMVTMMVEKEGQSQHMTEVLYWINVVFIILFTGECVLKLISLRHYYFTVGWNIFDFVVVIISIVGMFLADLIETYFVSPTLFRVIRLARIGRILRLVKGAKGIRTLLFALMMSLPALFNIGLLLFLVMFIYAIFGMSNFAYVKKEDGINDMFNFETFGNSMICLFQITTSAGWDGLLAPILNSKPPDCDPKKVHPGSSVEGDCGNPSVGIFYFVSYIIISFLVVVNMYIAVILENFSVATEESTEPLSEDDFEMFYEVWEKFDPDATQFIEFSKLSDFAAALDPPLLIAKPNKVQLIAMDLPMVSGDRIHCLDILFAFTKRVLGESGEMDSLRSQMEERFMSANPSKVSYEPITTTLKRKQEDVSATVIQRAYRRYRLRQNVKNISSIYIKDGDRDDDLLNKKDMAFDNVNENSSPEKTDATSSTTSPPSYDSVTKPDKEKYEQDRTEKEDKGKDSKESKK
Consider `CN(c1ccccc1)c1nc(N)nc(-c2noc(C(=O)N3CCC(COCC(F)(F)F)CC3)n2)n1` [Example 460, 2-N-methyl-2-N-phenyl-6-[5-({4-[(2,2,2-trifluoroethoxy)methyl]piperidin-1-yl]carbonyl)-1,2,4-oxadiazol-3-yl]-1,3,5-triazine-2,4-diamine], for which the IC50 is 3030 nM.

As to `CN(c1ccccc1)c1nc(N)nc(-c2noc(-c3cccnc3Cl)n2)n1` [Example 275, 6-[5-(2-chloropyridin-3-yl)-1,2,4-oxadiazol-3-yl]-2-N-methyl-2-N-phenyl-1,3,5-triazine-2,4-diamine], the IC50 was 3490 nM.

`CN(c1ccccc1)c1nc(N)nc(-c2noc(-c3ccc(SCC(F)(F)F)nc3)n2)n1` [Example 318, 2-N-methyl-2-N-phenyl-6-(5-{6-[(2,2,2-trifluoroethyl)sulfanyl]pyridin-3-yl}-1,2,4-oxadiazol-3-yl)-1,3,5-triazine-2,4-diamine]: the IC50 turned out to be 1890 nM.

Take `CN(c1ccccc1)c1nc(N)nc(-c2noc(-c3ncccc3C(=O)NC3CC3)n2)n1` [Example 376, 2-(3-{4-amino-6-[methyl(phenyl)amino]-1,3,5-triazin-2-yl}-1,2,4-oxadiazol-5-yl)-N-cyclopropylpyridine-3-carboxamide]: the IC50 is 9500 nM.

Turning to `Nc1nc(Nc2cccc(F)c2)nc(-c2noc(C(=O)NC3Cc4ccccc4C3)n2)n1` [Example 225, 3-{4-amino-6-[(3-fluorophenyl)amino]-1,3,5-triazin-2-yl}-N-(2,3-dihydro-1H-inden-2-yl)-1,2,4-oxadiazole-5-carboxamide], the IC50 was determined as 776 nM.

In the case of `CN(c1ccccc1)c1nc(N)nc(-c2noc(-c3ccc(NCC(F)(F)F)nc3)n2)n1` [Example 327, 2-N-Methyl-2-N-phenyl-6-(5-{6-[(2,2,2-trifluoroethyl)amino]pyridin-3-yl}-1,2,4-oxadiazol-3-yl)-1,3,5-triazine-2,4-diamine], the IC50 came out at 1860 nM.

With `CN(c1ccccc1)c1nc(N)nc(-c2noc(N3CCC(Oc4ccccc4)CC3)n2)n1` [Example 336, 2-N-methyl-6-[5-(4-phenoxypiperidin-1-yl)-1,2,4-oxadiazol-3-yl]-2-N-phenyl-1,3,5-triazine-2,4-diamine], the IC50 came to 255 nM.

In the case of `CCCS(=O)(=O)N1CCC(c2nc(-c3nc(N)nc(N(C)c4ccccc4)n3)no2)C1` (stereo not shown) [Example 200, 2-N-methyl-2-N-phenyl-6-{5-[1-(propane-1-sulfonyl)pyrrolidin-3-yl]-1,2,4-oxadiazol-3-yl}-1,3,5-triazine-2,4-diamine], the IC50 turned out to be 8590 nM.

Consider `CN(c1ccccc1)c1nc(N)nc(-c2noc(C3CCC(Oc4ccccc4)CC3)n2)n1` (stereo not shown) [Example 429, 2-N-methyl-6-[5-(4-phenoxycyclohexyl)-1,2,4-oxadiazol-3-yl]-2-N-phenyl-1,3,5-triazine-2,4-diamine], for which the IC50 was 289 nM.

For `CN(c1ccccc1)c1nc(N)nc(-c2noc([C@H]3[C@@H]4C(=O)N(Cc5ccccc5)C(=O)[C@@H]43)n2)n1` [Example 386, (1R,5S,6S)-6-(3-{4-Amino-6-[methyl(phenyl)amino]-1,3,5-triazin-2-yl}-1,2,4-oxadiazol-5-yl)-3-benzyl-3-azabicyclo[3.1.0]hexane-2,4-dione], the IC50 was over 9980 nM.

Take `COc1ccccc1-c1nc(-c2nc(N)nc(Nc3ccccc3)n2)no1` [Example 247, 6-[5-(2-methoxyphenyl)-1,2,4-oxadiazol-3-yl]-2-N-phenyl-1,3,5-triazine-2,4-diamine]: the IC50 worked out at 40 nM.

For the molecule `CN(c1ccccc1)c1nc(N)nc(-c2noc(N3C[C@@H]4[C@@H](COC5CCCC5)[C@@H]4C3)n2)n1` [Example 399, 6-{5-[6-[(cyclopentyloxy)methyl]-3-azabicyclo[3.1.0]hexan-3-yl]-1,2,4-oxadiazol-3-yl}-2-N-methyl-2-N-phenyl-1,3,5-triazine-2,4-diamine], the IC50 came to 620 nM.

For the molecule `CN(c1ccccc1)c1nc(N)nc(-c2noc(C(=O)N3C[C@@H]4[C@@H](COC5CCCC5)[C@@H]4C3)n2)n1` [Example 405, 6-(5-{[-6-[(cyclopentyloxy)methyl]-3-azabicyclo[3.1.0]hexan-3-yl]carbonyl}-1,2,4-oxadiazol-3-yl)-2-N-methyl-2-N-phenyl-1,3,5-triazine-2,4-diamine], the IC50 turned out to be 1280 nM.

In the case of `CC(C)Nc1ccc(-c2nc(-c3nc(N)nc(N(C)c4ccccc4)n3)no2)cn1` [Example 332, 2-N-Methyl-2-N-phenyl-6-(5-{6-[(propan-2-yl)amino]pyridin-3-yl}-1,2,4-oxadiazol-3-yl)-1,3,5-triazine-2,4-diamine], the IC50 was 1110 nM.

Consider `NC(=O)c1nc(-c2nc(N)nc(Nc3ccccc3)n2)no1` [Example 222, 3-[4-amino-6-(phenylamino)-1,3,5-triazin-2-yl]-1,2,4-oxadiazole-5-carboxamide], for which the IC50 amounted to 7710 nM.

Take `Nc1nc(Nc2ccccc2)nc(-c2noc(C(=O)N3CCCC3)n2)n1` [Example 220, 2-N-phenyl-6-{5-[(pyrrolidin-1 - yl)carbonyl]-1,2,4-oxadiazol-3-yl}-1,3,5-triazine-2,4-diamine]: the IC50 was found to be 833 nM.

In the case of `CN(c1ccccc1)c1nc(N)nc(-c2noc(C3CN(S(=O)(=O)c4ccccc4)C3)n2)n1` [Example 313, 6-{5-[1-(benzenesulfonyl)azetidin-3-yl]-1,2,4-oxadiazol-3-yl}-2-N-methyl-2-N-phenyl-1,3,5-triazine-2,4-diamine], the IC50 was 4860 nM.

For `CN(c1ccccc1)c1nc(N)nc(-c2noc(-c3ccc(OCCOCC(F)(F)F)nc3)n2)n1` [Example 366, 2-N-Methyl-2-N-phenyl-6-(5-{6-[2-(2,2,2-trifluoroethoxy)ethoxy]pyridin-3-yl}-1,2,4-oxadiazol-3-yl)-1,3,5-triazine-2,4-diamine], the IC50 came out at 52.5 nM.

For `CN(c1ccccc1)c1nc(N)nc(-c2noc(N3CC[C@H](OCC(F)(F)F)C3)n2)n1` [Example 445, 2-N-methyl-2-N-phenyl-6-{5-[(3S)-3-(2,2,2-trifluoroethoxy)pyrrolidin-1-yl]-1,2,4-oxadiazol-3-yl}-1,3,5-triazine-2,4-diamine], the IC50 worked out at 3300 nM.

The same test, now with this note: marker c: Automated patch clamp data; read-out: Nav 1.7 activity.
With `CN(c1ccccc1)c1nc(N)nc(-c2noc(Cc3ccccc3)n2)n1` [Example 31, 6-(5-Benzyl-[1,2,4]oxadiazol-3-yl)-N-methyl-N-phenyl-[1,3,5]triazine-2,4-diamine], the IC50 was found to be 363 nM.

On to `CN(c1cccc(Cl)c1)c1nc(N)nc(-c2noc(-c3ccccc3Cl)n2)n1` [Example 84, N-(3-Chloro-phenyl)-6-[5-(2-chloro-phenyl)-[1,2,4]oxadiazol-3-yl]-N-methyl-[1,3,5]triazine-2,4-diamine], for which the IC50 is 170 nM.

`CN(c1ccccc1)c1nc(N)nc(-c2noc(-c3cccc(OCC(F)(F)F)n3)n2)n1` [Example 155, 2-N-methyl-2-N-phenyl-6-{5-[6-(2,2,2-trifluoroethoxy)pyridin-2-yl]-1,2,4-oxadiazol-3-yl}-1,3,5-triazine-2,4-diamine]: the IC50 was determined as 4570 nM.

With `CN(c1ccccc1)c1nc(N)nc(-c2noc(-c3ccccc3C#N)n2)n1` [Example 80, 2-{3-[4-Amino-6-(methyl-phenyl-amino)-[1,3,5]triazin-2-yl]-[1,2,4]oxadiazol-5-yl}-benzonitrile], the IC50 amounted to 260 nM.

As to `CN(c1ccccc1)c1nc(N)nc(-c2noc(C3CCN(Cc4ccccc4)CC3)n2)n1` [Example 173, 6-[5-(1-Benzylpiperidin-4-yl)-1,2,4-oxadiazol-3-yl]-2-N-methyl-2-N-phenyl-1,3,5-triazine-2,4-diamine], the IC50 was determined as 1000 nM.

With `CCN(c1ccccc1)c1nc(N)nc(-c2noc(-c3c(F)cccc3OC)n2)n1` [Example 191, 2-N-ethyl-6-[5-(2-fluoro-6-methoxyphenyl)-1,2,4-oxadiazol-3-yl]-2-N-phenyl-1,3,5-triazine-2,4-diamine], the IC50 was 67 nM.

`CC(C)Oc1ccc(-c2nc(-c3nc(N)nc(N(C)c4ccccc4)n3)no2)cn1` [Example 149, 2-N-methyl-2-N-phenyl-6-{5-[6-(propan-2-yloxy)pyridin-3-yl]-1,2,4-oxadiazol-3-yl}-1,3,5-triazine-2,4-diamine]: the IC50 worked out at 142 nM.

For the molecule `Nc1nc(Nc2ccccc2F)nc(-c2noc(-c3ccc(OCC4CC4)nc3)n2)n1` [Example 138, 6-{5-[6-(cyclopropylmethoxy)pyridin-3-yl]-1,2,4-oxadiazol-3-yl}-2-N-(2-fluorophenyl)-1,3,5-thazine-2,4-diamine], the IC50 was 106 nM.

As for `Cc1cc(-c2nc(-c3nc(N)nc(N(C)c4ccccc4)n3)no2)n[nH]1` [Example 58, N-Methyl-6-[5-(5-methyl-1H-pyrazol-3-yl)-[1,2,4]oxadiazol-3-yl]-N-phenyl-[1,3,5]triazine-2,4-diamine], the IC50 turned out to be 855 nM.

The values are drawn from patent publication US8895733B2 (Novartis AG, priority 2010, dated 2014).
